According to ChEMBL document CHEMBL2417533, “Apratoxin H and apratoxin A sulfoxide from the Red Sea cyanobacterium Moorea producens” (J Nat Prod, 2013):

Test system: NCI-H460
Assay: Cytotoxicity against human NCI-H460 cells after 48 hrs by MTT assay
Format: functional, cell-based
Conditions: NCI-H460, 48 h

`CC[C@H](C)[C@H]1C(=O)N2CCC[C@H]2C(=O)O[C@H](C(C)(C)C)C[C@@H](C)C[C@H](O)[C@H](C)C2=N[C@@H](/C=C(\C)C(=O)N[C@@H](Cc3ccc(OC)cc3)C(=O)N(C)[C@@H](C)C(=O)N1C)C[S+]2[O-]` (stereo partly drawn) showed an IC50 of 89.9 nM.

For `CC[C@H](C)[C@H]1C(=O)N2CCCC[C@H]2C(=O)O[C@H](C(C)(C)C)C[C@@H](C)C[C@H](O)[C@H](C)C2=N[C@@H](/C=C(\C)C(=O)N[C@@H](Cc3ccc(OC)cc3)C(=O)N(C)[C@@H](C)C(=O)N1C)CS2`, the IC50 was 3.4 nM.

Compound `CC[C@H](C)[C@H]1C(=O)N2CCC[C@H]2C(=O)O[C@H](C(C)(C)C)C[C@@H](C)C[C@H](O)[C@H](C)C2=N[C@@H](/C=C(\C)C(=O)N[C@@H](Cc3ccc(OC)cc3)C(=O)N(C)[C@@H](C)C(=O)N1C)CS2` [APRATOXIN A] has an IC50 of 2.5 nM.
